PMC11021962, “Coupling and regulation mechanisms of the flavin-dependent halogenase PyrH observed by infrared difference spectroscopy” (The Journal of Biological Chemistry, 2024)

Key:
PyrH [1] = biological target: T1, PyrH (Streptomyces rugosporus, UniProt A4D0H5); test: light-induced FTIR difference spectroscopy; settings: 3 mM compound, FAD-bound enzyme, 20 mM chloride, 35 mM DTT, pH 8.3, 10 °C, anaerobic, 450 nm photoreduction; substrate-binding site, allosterically coupled to FAD site
PyrH [2] = biological target: T1, PyrH; test: UV-vis spectroscopy after reconstitution and washing; light-induced FTIR difference spectroscopy; format: binding; settings: pH 8.3, 20 mM NaCl, 60 mM potassium phosphate

T1 sequence (A4D0H5 whole entry): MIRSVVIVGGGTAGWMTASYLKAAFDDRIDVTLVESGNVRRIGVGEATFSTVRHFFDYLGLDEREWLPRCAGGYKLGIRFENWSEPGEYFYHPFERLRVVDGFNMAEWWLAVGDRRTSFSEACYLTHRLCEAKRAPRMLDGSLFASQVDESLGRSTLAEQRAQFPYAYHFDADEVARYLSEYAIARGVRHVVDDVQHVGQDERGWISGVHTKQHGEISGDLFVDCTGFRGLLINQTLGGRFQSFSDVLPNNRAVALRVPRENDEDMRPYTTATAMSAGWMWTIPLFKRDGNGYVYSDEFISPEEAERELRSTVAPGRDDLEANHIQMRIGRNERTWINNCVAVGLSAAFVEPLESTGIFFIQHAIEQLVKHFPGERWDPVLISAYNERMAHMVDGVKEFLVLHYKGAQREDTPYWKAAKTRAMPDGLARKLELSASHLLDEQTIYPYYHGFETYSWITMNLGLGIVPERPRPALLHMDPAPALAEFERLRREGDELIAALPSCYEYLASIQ

Compound	light-induced FTIR difference spectroscopy (PyrH [1])	UV-vis spectroscopy after reconstitution and washing; light-induced FTIR differe (PyrH [2])
N[C@@H](Cc1c[nH]c2ccc(Cl)cc12)C(=O)O [5-chlorotryptophan]	The binding of 5-chlorotryptophan also leads to a reduction of secondary structure changes	–
Cc1cc2nc3c(=O)[nH]c(=O)nc-3n(C[C@H](O)[C@H](O)[C@H](O)COP(=O)(O)OP(=O)(O)OC[C@H]3O[C@@H](n4cnc5c(N)ncnc54)[C@H](O)[C@@H]3O)c2cc1C [FAD]	–	FAD remained bound to PyrH in all three samples after extensive washing steps
N[C@@H](Cc1c[nH]c2ccccc12)C(=O)O [tryptophan]	Tryptophan binding causes a change in the environment of FAD	–
